How the values were obtained:
[1] = tested on: Pu27 (DNA, G4) TGGGGAGGGTGGGGAGGGTGGGGAAGG; assay: CD titration; conditions: K+ 100 mM; 10 mM Tris-HCl, pH 7.2; 5 μM DNA; 0-5 mol equiv compound
[2] = tested on: 2(dT21):dA21 (DNA, triplex) AAAAAAAAAAAAAAAAAAAAA/TTTTTTTTTTTTTTTTTTTTT; assay: competition dialysis; conditions: Na+ 100 mM; 10 mM Tris-HCl, pH 7.2, room temperature; 1 μM compound; bound amount in figure
HT-7 (DNA, G4) TTAGGGT = assay: competition dialysis; conditions: Na+ 100 mM; 10 mM Tris-HCl, pH 7.2, room temperature; 1 μM compound; bound amount in figure
[3] = tested on: FPu18T (Pu18) (DNA, G4) AGGGTGGGGAGGGTGGGG; assay: FRET melting; conditions: K+ (KCl, concentration not given); pH 7.2; Tm with ligand, "up to", not a shift; compound 2 μM (from mixing volumes), DNA 0.2 μM
[4] = tested on: dA21 (DNA, single strand) AAAAAAAAAAAAAAAAAAAAA; assay: competition dialysis; conditions: Na+ 100 mM; 10 mM Tris-HCl, pH 7.2, room temperature; 1 μM compound; bound amount in figure
[5] = tested on: Pu27 (DNA, G4) TGGGGAGGGTGGGGAGGGTGGGGAAGG; assay: competition dialysis; conditions: Na+ 100 mM; 10 mM Tris-HCl, pH 7.2, room temperature; 1 μM compound; strongest of set; bound amount in figure
[6] = tested on: HTC21 (DNA, i motif) CCCTAACCCTAACCCTAACCC; assay: competition dialysis; conditions: Na+ 100 mM; 10 mM Tris-HCl, pH 7.2, room temperature; 1 μM compound; bound amount in figure
[7] = tested on: HTG21mu (DNA, single strand) GAGTTAGAGTTAGAGTTAGAG; assay: competition dialysis; conditions: Na+ 100 mM; 10 mM Tris-HCl, pH 7.2, room temperature; 1 μM compound; bound amount in figure
[8] = tested on: HTds (HTC21:HTG21) (DNA, duplex) GGGTTAGGGTTAGGGTTAGGG/CCCTAACCCTAACCCTAACCC; assay: competition dialysis; conditions: Na+ 100 mM; 10 mM Tris-HCl, pH 7.2, room temperature; 1 μM compound; bound amount in figure
[9] = tested on: HTG21 (DNA, G4) GGGTTAGGGTTAGGGTTAGGG; assay: competition dialysis; conditions: Na+ 100 mM; 10 mM Tris-HCl, pH 7.2, room temperature; 1 μM compound; bound amount in figure
[10] = tested on: dT21 (DNA, single strand) TTTTTTTTTTTTTTTTTTTTT; assay: competition dialysis; conditions: Na+ 100 mM; 10 mM Tris-HCl, pH 7.2, room temperature; 1 μM compound; bound amount in figure
[11] = tested on: Pu27 (DNA, G4) TGGGGAGGGTGGGGAGGGTGGGGAAGG; assay: PCR stop assay; conditions: apparent; Taq polymerase, Pu27rev reverse primer, 10 cycles, 58°C annealing; gel densitometry
[12] = tested on: Pu27 (DNA, G4) TGGGGAGGGTGGGGAGGGTGGGGAAGG; assay: CD spectroscopy; conditions: none (salt-free); 10 mM Tris-HCl, pH 7.2; 5 μM DNA; induces parallel G-quadruplex

## CN(C)CCCNCCC(=O)Nc1ccc(C(=O)Nc2cc(Cl)ccc2-c2nc(NCCCN(C)C)c3ccccc3n2)cc1
[1]
  binding: yes
[2]
  binding: weak
HT-7 (DNA, G4) TTAGGGT
  binding: yes
[3]
  Tm: 77.5 °C
[4]
  binding: weak
[5]
  binding: yes
[6]
  binding: yes
[7]
  binding: weak
[8]
  binding: weak
[9]
  binding: yes
[10]
  binding: weak
[11]
  IC50: 2.13 µM
[12]
  binding: yes
